Data taken from US20210024483A1, “HETEROCYLCOALKENYL DERIVATIVES USEFUL AS AGONISTS OF THE GPR120 AND / OR GPR40” (Janssen Pharmaceutica NV, priority 2018, published 2021).

Key:
GPR40 = GPR40 (UniProt O14842); test: GPR40 Calcium Flux Assay; format: cell-based; settings: transfected HEK293 cells stably expressing human or rat GPR40; species not given
Experimental: Biological Example 3: In Vitro Assay
Compounds were tested in a calcium flux assay using transfected HEK293 cells stably expressing either human GPR40 or rat GPR40. Human GPR40 expressing cells were cultured in DMEM-High Glucose media supplemented with 10% fetal bovine serum, 1×L-Glutamine, 1× Penicillin/Streptomycin and 500 μg/mL G418. Rat GPR40 expressing cells were cultured in DMEM-High Glucose media supplemented with 10% fetal bovine serum and 1 μg/mL puromycin. Cells were plated into poly-D-lysine coated 384-well plates and cultured overnight in a 37° C. humidified tissue culture incubator under 5% CO2/90% O2 atmosphere.
On the day of the experiment, the culture media was replaced with assay buffer (HBSS, 20 mM HEPES, 0.1% BSA) and the cells incubated at 37° C. for 1 h. Calcium-sensitive fluorescent dye (Fluo 8 No-Wash Calcium Dye, ABD Bioquest) was then added and the cells incubated for another 30 min at 37° C. followed by 15 min at room temperature while protected from the light. The cell plate and a plate of diluted compounds of Formula (I) were loaded into a fluorescent plate reader that added compounds onto the cells while measuring the fluorescence intensity of each well. The plate reader recorded fluorescence intensity at 1 second intervals for 8 min and provided the data for analysis in an Excel format. EC50 values were calculated using Prism (GraphPad) software.

[1] = target: T1, Human GPR120 short form (short splice variant, NM_001195755.1) (Homo sapiens, UniProt Q5NUL3); test: Human GPR120 Calcium Flux Assay; format: cell-based; settings: HEK-293 cells, 4200 cells/well, read-out: Human GPR120 Calcium Flux Assay Procedure B EC50
T1 construct: expressed in transfected cells; host or cells: HEK293
T1 sequence (Q5NUL3 1-361): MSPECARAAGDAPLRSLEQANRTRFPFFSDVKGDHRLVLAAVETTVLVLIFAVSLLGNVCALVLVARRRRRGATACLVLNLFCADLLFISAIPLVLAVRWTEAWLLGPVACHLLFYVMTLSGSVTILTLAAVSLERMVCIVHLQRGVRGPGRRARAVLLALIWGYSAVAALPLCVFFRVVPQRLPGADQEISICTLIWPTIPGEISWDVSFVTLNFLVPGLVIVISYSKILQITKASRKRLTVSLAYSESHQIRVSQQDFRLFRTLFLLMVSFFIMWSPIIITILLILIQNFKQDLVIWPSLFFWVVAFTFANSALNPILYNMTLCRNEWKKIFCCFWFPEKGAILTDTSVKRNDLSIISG
From the text: In Vitro Assay: Human GPR120 in Calcium Flux Assay
This in vitro assay serves to assess test compound agonist activity against the short splice variant (SVS with Accession number NM_001195755.1 confirmed by sequencing data) of the GPR120 receptor. The Human Short splice variant #2 (NM_001195755.1) is missing an in-frame coding exon compared to variant 1 (the Human Long splice variant NM_181745.3), resulting in a shorter isoform (GPR120-S) lacking a 16 aa protein segment compared to isoform GPR120-L. The assay platform utilizes HEK-293 cells stably transfected to express the Human GPR120 short form. These cells are first loaded with the Ca^+2 sensitive dye, Fluo-4 NW. Upon stimulation, intracellular released Ca^+2 can bind to the dye and alter its fluorescence intensity. This increase in fluorescence signal, and thus the flux in intracellular [Ca^2+], is detected and quantitated by fluorescence imaging using a FLIPR reader. The effect of the agonist is measured as a function of concentration and used to calculate an EC50 based upon a response curve. […]
In this procedure 4200 cells/well were employed.
A Human GPR120 clone (Genbank accession number NM_001195755.1) was placed into the pcDNA3.1 mammalian expression vector carrying the neomycin resistance gene. A stable mammalian cell was generated by placing the above clone into a HEK293 background. Clonal cells responding to long chain fatty acids had expression levels of GPR120 confirmed by RT-qPCR. Human HEK-GPR120 cells were cultured in Dulbecco's Modified Eagle's Medium (DMEM)/F12 medium supplemented with 10% fetal bovine serum (FBS), 1% L-Glutamine and 1% penicillin/streptomycin and 0.5 mg/ml G-418. Cells were split 2 times a week to keep the cells in the log-phase growth.
In preparation for the assay, HEK cells stably transfected with Human GPR120 (2.5K cells per well in 25 uL growth medium) were seeded into 384-well plates and then incubated overnight (37° C., 5% CO2). The next day, the media was changed to 20 μL assay buffer and the cell starved for 1 h at 37° C. The dye loading solution (2× dye) was prepared using 10 mL assay buffer, 100 μL of 250 mM probenecid, 1 bottle of Component A, and 20 μl of dye in DMSO. Twenty μL of the 2× dye loading buffer was then added to each well. The plates were incubated at 37° C. for 30 min, then at room temperature for an additional 15 minutes, before performing the assay on FLIPR.
The assay was performed on a FLIPR plate reader using the following parameters. Baseline was read for 10 seconds at 1 sec intervals. The program was set to transfer 10 μL of ligand from compound plate to cell plate after baseline reading. Aspiration was executed at: 10 μL/sec speed, 4.6 μL height; Dispensing was executed at: 30 μL/sec speed, 45 μL height. After compound addition, each well was read for 300 sec, with measurements collected at 1 sec intervals.
The kinetic data from the FLIPR was based upon a 5 minute window for data collection. The fluorescence of each sample well was used for individual calculations of a normalized RFU value, which was defined as maximum response minus the minimum response. The normalized fluorescence reading (RFU) was calculated as follows:
The data were fitted to a sigmoidal dose-response curve with a variable Hill slope (<2) using nonlinear regression with GraphPad Prism 5.0 to calculate the EC50 values. The Fitting Equation was: Y=Bottom+(Top−Bottom)/(1+10^((Log EC50−X)*HillSlope)), where X is the log of the concentration and Y is the response.

EC50 (GPR40) [nM] | EC50 [1] [nM] | Structure (SMILES)
492 | 2190 | CC(C)C1=C(COc2ccc(CCC(=O)O)c(C(F)(F)F)c2)COCC1 [compound 735]
973 | 1190 | CC(C)CCC1=C(COc2ccc(CCC(=O)O)c(C(F)(F)F)c2)COCC1 [compound 722]
> 10000 | 1090 | Cc1ccc(C2=C(COc3ccc(CCC(=O)O)cc3)CCOC2)cc1F [compound 769]
571 | 1840 | CCC1=C(COc2ccc(CCC(=O)O)c(C(F)(F)F)c2)COCC1 [compound 716]
1430 | > 5000 | O=C(O)CCc1ccc(OCC2=C(CC3CCCCC3)CCOC2)cc1C(F)(F)F [compound 718]
588 | 2340 | O=C(O)CCc1ccc(OCC2=C(C3CCC3)CCOC2)cc1Cl [compound 725]
> 10000 | > 5000 | C=C(C1=C(COc2ccc(CCC(=O)O)cc2F)COCC1)c1ccccc1 [compound 723]
1440 | 455 | O=C(O)CCc1ccc(OCC2=C(C3CCCC3)COCC2)cc1 [compound 764]
2660 | 1310 | O=C(O)CCc1ccc(OCC2=C(C3CCCC3)CCOCC2)cc1 [compound 780]
> 10000 | 2420 | O=C(O)CCc1cc(F)c(OCC2=C(Cc3ccc(Cl)cc3)CCOC2)c(F)c1 [compound 721]
133 | 1300 | CC(C)CC1=C(COc2ccc(CCC(=O)O)c(C(F)(F)F)c2)COCC1 [compound 717]
1060 | > 5000 | CC(C)CC1=C(COc2ccc(CCC(=O)O)c(Cl)c2)COCC1 [compound 732]
1020 | > 5000 | CCCCCCC1=C(COc2ccc(CCC(=O)O)c(C(F)(F)F)c2)COCC1 [compound 719]
339 | > 5000 | C=C(C1=C(COc2ccc(CCC(=O)O)c(Cl)c2)COCC1)c1ccccc1 [compound 720]

Further lines, the compound ahead of its results:

Structure (SMILES) | EC50 (GPR40) [nM] | EC50 [1] [nM]
O=C(O)CCc1ccc(OCC2=C(Cc3ccc(Cl)cc3)CCOC2)cc1Cl [compound 709] | 2300 | > 5000
O=C(O)CCc1ccc(OCC2=C(Cc3ccccc3)CCOC2)cc1 [compound 688] | 3250 | 2940
C=C(C1=C(COc2ccc(CCC(=O)O)cc2)COCC1)c1ccccc1 [compound 699] | 1740 | > 5000
O=C(O)CCc1ccc(OCC2=C(Cc3ccccc3)CCOC2)cc1Cl [compound 713] | 703 | > 5000
O=C(O)CCc1ccc(OCC2=C(c3ccc(OC(F)(F)F)cc3)CCOC2)cc1C(F)(F)F [compound 686] | 740 | > 5000
C=C(C1=C(COc2ccc(CCC(=O)O)c(C(F)(F)F)c2)COCC1)c1ccccc1 [compound 687] | 54 | > 5000
Cc1ccc(C2=C(COc3ccc(CCC(=O)O)c(C)c3C)COCC2)cc1F [compound 659] | > 10000 | 66
CC(C1=C(COc2ccc(CCC(=O)O)c(C(F)(F)F)c2)COCC1)c1ccccc1 (centres unmarked) [compound 701] | 145 | > 5000
Cc1ccc(C2=C(COc3ccc(CCC(=O)O)c(C(F)(F)F)c3)COCC2)c(F)c1 [compound 684] | 2700 | 786
COc1ccc(CC2=C(COc3ccc(CCC(=O)O)cc3)COCC2)cc1 [compound 697] | ~18900 | > 5000
Cc1ccc(CC2=C(COc3ccc(CCC(=O)O)c(C(F)(F)F)c3)COCC2)cc1 [compound 692] | 324 | > 5000
CCCCC1=C(COc2ccc(CCC(=O)O)c(C(F)(F)F)c2)COCC1 [compound 707] | 326 | 829
Cc1ccc(CC2=C(COc3ccc(CCC(=O)O)cc3)COCC2)cc1 [compound 691] | 3620 | 2400
O=C(O)CCc1ccc(OCC2=C(C3CCCC3)COC2)cc1 [compound 632] | 2580 | 422
